# Measurements published in patent publication US7772271B2 (priority 2004, dated 2010).
row,SMILES,melting point
1,CC1(S(=O)(=O)Nc2ccc(-c3c(C#N)c4ccc(C(=O)N5CCOCC5)cc4n3C3CCC3)cc2)CC1 [Compound 2964],248 to 250 °C
2,CCC1(S(=O)(=O)Nc2ccc(-c3c(C#N)c4ccc(C(=O)N5CCOCC5)cc4n3C3CCC3)cc2)CC1 [Compound 2965],212 to 214 °C
3,CCCS(=O)(=O)Nc1ccc(-c2c(C#N)c3ccc(Oc4nccc(C)n4)cc3n2CC2CC2)cc1 [Compound 2969],181 to 183 °C
4,N#Cc1c(-c2ccc(NCc3ccccc3C(F)(F)F)cc2)n(C2CCC2)c2cc(OCCF)ccc12 [Compound 2970],183 to 185 °C
5,CCCS(=O)(=O)Nc1ccc(-c2c(C#N)c3ccc(-c4ncccc4Cl)cc3n2C2CCC2)cc1 [Compound 2972],235 to 237 °C
6,CCCS(=O)(=O)Nc1ccc(-c2c(C#N)c3ccc(-c4cc(C)ccn4)cc3n2C2CCC2)cc1 [Compound 2978],210 to 212 °C
7,CCCS(=O)(=O)Nc1ccc(-c2c(C#N)c3ccc(Oc4nccc(C)n4)cc3n2CC2CC2)c(C)c1 [Compound 2980],167 to 170 °C
8,CCCS(=O)(=O)Nc1ccc(-c2c(C#N)c3ccc(Oc4nccc(C(F)(F)F)n4)cc3n2CC2CC2)c(C)c1 [Compound 2981],174 to 177 °C
9,CCCS(=O)(=O)Nc1ccc(-c2c(C#N)c3ccc(OCS(C)(=O)=O)cc3n2C2CCC2)cc1 [Compound 2987],266 to 273 °C
10,CC(C)CS(=O)(=O)Nc1ccc(-c2c(C#N)c3ccc(OCS(C)(=O)=O)cc3n2C2CCC2)cc1 [Compound 2991],221 to 225 °C
11,C[C@@H](OC(=O)Nc1ccc(-c2c(C#N)c3ccc(-c4ccccn4)cc3n2C2CCC2)cc1Cl)C(F)(F)F [Compound 2994],84 to 94 °C
12,CCCS(=O)(=O)Nc1ccc(-c2c(C#N)c3ccc(Oc4ncccc4Br)cc3n2C2CC2)cc1 [Compound 3003],223 to 225 °C
13,CC(C)Nc1ccc(-c2c(C#N)c3ccc(Oc4ncccc4F)cc3n2C2CCC2)cc1 [Compound 3004],188 to 190 °C
14,Cc1ccnc(Oc2ccc3c(C#N)c(-c4ccc(NC(C)C)cc4)n(C4CCC4)c3c2)n1 [Compound 3006],173 to 175 °C
15,CC(C)CS(=O)(=O)Nc1ccc(-c2c(C#N)c3ccc(-n4ccccc4=O)cc3n2C2CCC2)cc1 [Compound 3015],270 °C (dec.)
16,C[C@H](NS(=O)(=O)Nc1ccc(-c2c(C#N)c3ccc(Oc4ncccc4F)cc3n2C2CCC2)cc1)C1CC1 [Compound 3018],155 to 157 °C

row,SMILES,melting point
1,Cc1ccnc(Oc2ccc3c(C#N)c(-c4ccc(NS(=O)(=O)N[C@@H](C)C5CC5)cc4)n(C4CCC4)c3c2)n1 [Compound 3019],227 to 229 °C
2,C[C@H](NS(=O)(=O)Nc1ccc(-c2c(C#N)c3ccc(Oc4ncccc4Br)cc3n2C2CCC2)cc1)C1CC1 [Compound 3020],118 to 124 °C
3,CC(OC(=O)Nc1ccc(-c2c(C#N)c3ccc(OCc4cnccn4)cc3n2C2CCC2)cc1)C(F)(F)F (stereo not shown) [Compound 3021],195 to 196 °C
4,CC(C)(C)OC(=O)Nc1ccc(-c2c(C#N)c3ccc(OCS(C)(=O)=O)cc3n2CC2CC2)cc1 [Compound 3025],214 to 220 °C
5,CCCS(=O)(=O)Nc1ccc(-c2c(C#N)c3ccc(Oc4ncccc4Br)cc3n2CC2CC2)c(C)c1 [Compound 3029],110 to 113 °C
6,CCCS(=O)(=O)Nc1ccc(-c2c(C#N)c3ccc(Oc4ncccc4F)cc3n2CC2CC2)c(C)c1 [Compound 3030],128 to 131 °C
7,C[C@@H](OC(=O)Nc1ccc(-c2c(C#N)c3ccc(Oc4ncccn4)cc3n2C2CCC2)cc1OC(F)(F)F)C1CC1 [Compound 3034],80 to 81 °C
8,CC(C)OC(=O)Nc1ccc(-c2c(C#N)c3ccc(Oc4ncccn4)cc3n2C2CCC2)cc1OC(F)(F)F [Compound 3035],94 to 96 °C
9,CC(C)OC(=O)Nc1c(F)cc(-c2c(C#N)c3ccc(Oc4ncccn4)cc3n2C2CCC2)cc1F [Compound 3036],144 to 154 °C
10,CC(C)NC(=O)Nc1c(F)cc(-c2c(C#N)c3ccc(Oc4ncccn4)cc3n2C2CCC2)cc1F [Compound 3038],236 to 243 °C
11,CC(C)OC(=O)Nc1c(F)cc(-c2c(C#N)c3ccc(OCCF)cc3n2C2CCC2)cc1F [Compound 3039],150 to 155 °C
12,C[C@@H](OC(=O)Nc1c(F)cc(-c2c(C#N)c3ccc(OCCF)cc3n2C2CCC2)cc1F)C1CC1 [Compound 3040],176 to 180 °C
13,CC(C)NC(=O)Nc1c(F)cc(-c2c(C#N)c3ccc(OCCF)cc3n2C2CCC2)cc1F [Compound 3041],224 to 229 °C
14,Cc1cc(-c2c(C#N)c3ccc(OCC(F)F)cc3n2C2CCC2)ccc1NC(=O)OC(C)C(F)(F)F (stereo not shown) [Compound 3049],154 to 155 °C
15,CC(OC(=O)Nc1ccc(-c2c(C#N)c3ccc(OCC(F)F)cc3n2C2CCC2)cc1Cl)C(F)(F)F (stereo not shown) [Compound 3051],184 to 185 °C

# Further lines, results first:
row,melting point,SMILES
1,189 to 194 °C,CCCS(=O)(=O)Nc1ccc(-c2c(C#N)c3ccc(N4CCCCC4)cc3n2CC2CC2)cc1 [Compound 2963]
2,208 to 213 °C,CC(C)OC(=O)Nc1ccc(-c2c(C#N)c3ccc(N4CCCCC4)cc3n2C2CCC2)cc1 [Compound 2967]
3,233 to 235 °C,CC(C)S(=O)(=O)Nc1ccc(-c2c(C#N)c3ccc(N4CCCCC4)cc3n2C2CCC2)cc1 [Compound 2968]
4,203 to 205 °C,CCS(=O)(=O)Nc1ccc(-c2c(C#N)c3ccc(N4CCCCC4)cc3n2C2CCC2)cc1 [Compound 2974]
5,256 to 261 °C,CC(C)S(=O)(=O)Nc1ccc(-c2c(C#N)c3ccc(N4CCCC4)cc3n2C2CCC2)cc1 [Compound 2975]
6,112 to 117 °C,Cc1cccc(-c2ccc3c(C#N)c(-c4ccc(NC(=O)O[C@H](C)C5CC5)cc4)n(C4CCC4)c3c2)c1 [Compound 2977]
7,198 to 202 °C,CC(C)CS(=O)(=O)Nc1ccc(-c2c(C#N)c3ccc(N4CCCCC4)cc3n2C2CCC2)cc1 [Compound 2982]
8,232 to 238 °C,N#Cc1c(-c2ccc(NS(=O)(=O)C3CC3)cc2)n(C2CCC2)c2cc(N3CCCCC3)ccc12 [Compound 2983]
9,229 to 233 °C,CS(=O)(=O)Nc1ccc(-c2c(C#N)c3ccc(N4CCCCC4)cc3n2C2CCC2)cc1 [Compound 2984]
10,205 to 210 °C,C[C@@H](OC(=O)Nc1ccc(-c2c(C#N)c3ccc(N4CCCC4)cc3n2C2CCC2)cc1)C1CC1 [Compound 2985]
11,197 to 202 °C,C[C@@H](OC(=O)Nc1ccc(-c2c(C#N)c3ccc(N4CCCC4)cc3n2C2CC2)cc1)C1CC1 [Compound 2986]
12,231 to 237 °C,CS(=O)(=O)COc1ccc2c(C#N)c(-c3ccc(NS(=O)(=O)C4CCC4)cc3)n(C3CCC3)c2c1 [Compound 2993]
13,206 to 208 °C,C[C@@H](OC(=O)Nc1ccc(-c2c(C#N)c3cc(Oc4cnccn4)ccc3n2C2CCC2)cc1)C1CC1 [Compound 2995]
14,200 to 202 °C,C[C@@H](OC(=O)Nc1ccc(-c2c(C#N)c3cc(Oc4ncccn4)ccc3n2C2CCC2)cc1)C1CC1 [Compound 2996]
15,90 to 98 °C,C[C@@H](OC(=O)Nc1ccc(-c2c(C#N)c3ccc(-c4ncccc4C(F)(F)F)cc3n2C2CCC2)cc1)C1CC1 [Compound 2997]
16,226 to 228 °C,Cc1cccnc1-c1ccc2c(C#N)c(-c3ccc(NC(=O)O[C@H](C)C4CC4)cc3)n(C3CCC3)c2c1 [Compound 2999]
17,208 to 210 °C,C[C@@H](OC(=O)Nc1ccc(-c2c(C#N)c3ccc(-c4cccc(Cl)n4)cc3n2C2CCC2)cc1)C1CC1 [Compound 3000]

row,melting point,SMILES
1,111 to 122 °C,C[C@@H](OC(=O)Nc1ccc(-c2c(C#N)c3ccc(-c4ccc(Cl)cn4)cc3n2C2CCC2)cc1)C1CC1 [Compound 3001]
2,88 to 102 °C,Cc1ccc(-c2ccc3c(C#N)c(-c4ccc(NC(=O)O[C@H](C)C5CC5)cc4)n(C4CCC4)c3c2)nc1 [Compound 3002]
3,154 to 156 °C,C[C@@H](OC(=O)Nc1ccc(-c2c(C#N)c3ccc(Oc4ncccc4F)cc3n2C2CC2)cc1)C1CC1 [Compound 3007]
4,196 to 199 °C,CC(C)OC(=O)Nc1ccc(-c2c(C#N)c3ccc(N4CCOCC4)cc3n2C2CCC2)cc1Cl [Compound 3011]
5,176 to 179 °C,CCCS(=O)(=O)Nc1ccc(-c2c(C#N)c3ccc(N4CCOCC4)cc3n2C2CCC2)cc1 [Compound 3013]
6,120 to 125 °C,C[C@H](NS(=O)(=O)Nc1ccc(-c2c(C#N)c3ccc(Oc4ncccc4Cl)cc3n2C2CCC2)cc1)C1CC1 [Compound 3017]
7,195 to 197 °C,C[C@@H](OC(=O)Nc1ccc(-c2c(C#N)c3ccc(-c4ccnn4C)cc3n2C2CCC2)cc1)C1CC1 [Compound 3046]
8,120 °C (dec.),C[C@@H](OC(=O)Nc1ccc(-c2c(C#N)c3ccc(-c4cn(C)cn4)cc3n2C2CCC2)cc1)C1CC1 [Compound 3048]
9,166 to 187 °C,CC(C)OC(=O)Nc1ccc(-c2c(C#N)c3ccc(OCS(C)(=O)=O)cc3n2C2CC2)cc1 [Compound 3052]
10,190 to 196 °C,C[C@@H](OC(=O)Nc1ccc(-c2c(C#N)c3ccc(OCS(C)(=O)=O)cc3n2C2CC2)cc1)C(F)(F)F [Compound 3054]
11,95 to 112 °C,Cc1ccnc(Oc2ccc3c(C#N)c(-c4ccc(NC(=O)O[C@H](C)C5CC5)cc4C)n(C4CCC4)c3c2)n1 [Compound 3057]
12,181 to 185 °C,CCc1cnc(Oc2ccc3c(C#N)c(-c4ccc(NC(=O)O[C@H](C)C5CC5)cc4C)n(C4CCC4)c3c2)nc1 [Compound 3058]
13,97 to 109 °C,Cc1ccnc(Oc2ccc3c(C#N)c(-c4ccc(NC(=O)O[C@H](C)C5CC5)cc4Cl)n(C4CCC4)c3c2)n1 [Compound 3059]
14,205 to 212 °C,CCc1cnc(Oc2ccc3c(C#N)c(-c4ccc(NC(=O)O[C@H](C)C5CC5)cc4Cl)n(C4CCC4)c3c2)nc1 [Compound 3060]
15,237 to 241 °C,CC(C)(C)OC(=O)Nc1ccc(-c2c(C#N)c3ccc(OCS(C)(=O)=O)cc3n2C2CCCC2)cc1 [Compound 3066]
16,265 to 271 °C,CC(C)OC(=O)Nc1ccc(-c2c(C#N)c3ccc(OCS(C)(=O)=O)cc3n2C2CCCC2)cc1 [Compound 3067]
